The values that follow come from patent US20220072162A1, “MAGNETIC RESONANCE IMAGING DRUG CONTAINING A DEUTERATED NATURAL BRANCHED-CHAIN AMINO ACID, AND DIAGNOSTIC METHOD USING SAID DRUG” (LIMITED LIABILITY COMPANY "SOLVEX" ("SOLVEX" LLC), priority 2018, published 2022).

A value given as a limit tells only on which side of the number the result lay.

For data set [1] the following is noted: in vivo; cited from earlier work.
Data set [2] in a line: Distribution and metabolism of deuterated valine mixture in tissues, isotopomer ratio by LC-MS/MS (Example 6). The class given is in vivo, Balb/c mice. Particulars: 60 minutes after 20 mg i.p., 49% in initial drug. The procedure: In this example, L-valine-d6/d7, partially deuterated at the α position and positions 4, 4′, was used. (S-valine-d6/d7). The total molar fraction of α-deuterated forms of valine in the initial diagnostic drug is 49%.
After administration, the animal was kept in a separate cage with access to food and water. After 60 minutes after administration, the animal was devitalized by dislocation of the cervical vertebrae. Samples of animal organs and tissues were quickly removed and frozen in liquid nitrogen. Frozen samples were ground in a porcelain mortar while cooling with liquid nitrogen. A weighed portion (about 50 mg) of the obtained powder was quickly introduced into 0.4% hydrochloric acid (1.0 ml) heated to 98° C. The resulting suspension was kept at 98° C. for 15 min with occasional shaking, then centrifuged. The solution was diluted with 3 volumes of acetonitrile, centrifuged after 15 minutes, diluted with 9 volumes of water, and centrifuged again. The ratio of isotopomers d5, d6, and d7 of valine was determined by LC-MS/MS.

The conditions of data set [3]: in vivo; cited from earlier work. This is another data set of the same source.
On data set [4], the source says: This exchange lowers the concentration of the deuterium label, while simultaneously increasing the background signal of heavy water (DOH), which is evenly distributed throughout the body due to rapid diffusion. This process leads to a decrease in the contrast of the image, and also prevents quantitive evaluation of deuterated component concentration by comparison with the intensity of natural DOH signal.

Another data set has as its system 4T1 breast carcinoma. Put plainly: Deuterium tomography (2H MRI) to visualize mouse 4T1 breast carcinoma in vivo (Examples 2, 4). The following applies: for accumulation in tumor tissue (2H tomograms): i.p. to 20 g mouse: 20 mg valine-d6, 30 mg L-alanine-d3, 10 mg L-phenylalanine-d7; for accumulation selectivity in various organs (2H tomograms): i.p. to 20 g mouse: 30 mg L-alanine-d3, 10 mg L-phenylalanine-d7.

The nature of data set [5]: Content of valine-d6 in tissues of mice with 4T1 breast carcinoma, 2H NMR of tissue extracts (Example 5). The class given is in vivo, Balb/c mice. The following applies: for [valine-d6], 30 min.: 30 min after 20 mg i.p. to 20 g mouse; for [valine-d6], 1 hour: 1 hour after 20 mg i.p. to 20 g mouse. How it is done:
After administration, the animal was kept in a separate cage with access to food and water. After a certain time after administration, the animal was devitalized by dislocation of the cervical vertebrae. Samples of animal organs and tissues were quickly removed and frozen in liquid nitrogen. Frozen samples were ground in a porcelain mortar while cooling with liquid nitrogen. A weighed portion (50-200 mg) of the obtained powder was quickly introduced into 0.4% hydrochloric acid (0.6-1.0 ml) heated to 98° C. The resulting suspension was kept at 98° C. for 15 min with occasional shaking. After adding an internal standard (3-O—(CD3)-glucose solution), the mixture was shaken and centrifuged until the solid fractions were completely separated. The solution was analyzed by ^2H NMR.

The conditions of data set [6]: in vivo; cited from earlier work. This is another data set of the same source.
For data set [7] the following is noted: rat, in vivo, 0.021 mg/kg; cited from earlier work.
Data set [8] can be described thus: Accumulation of freely diffusing deuterated compounds in organs and tissues. The class given is in vivo. Particulars: authors' experiments and prior art.
Data set [9] can be described thus: Solubility in water for injection. Particulars: 10 mg in 1.0 ml of water was the dose given. Type of data set: physicochemical.

Take `CC(C)C(N)[14C](=O)O` (stereo not shown) [^14C-valine]: in data set [1], the “time within which most of the label accumulated in liver and pancreas is included in protein” value was at most 10 min.
As to “Valine-2,4,4,4,4 “, 4”, 4′-D7 (mixed with valine-4,4,4,4 “, 4”, 4′-D6) [L-valine-d6/d7]”, the “total mole fraction of α-deuterated valine” value in data set [2] (adipose tissue) came out at 11%; in data set [2] (blood) it was 12%; in data set [2] (brain), 5%; in data set [2] (kidneys), 17%; in [2] (liver), 11%; in [2] (skeletal muscles), 11%. Besides, the “total mole fraction of α-deuterated valine” value was 13% in data set [2] (spleen) and 12% in [2] (tumor).
For `[2H]O` [DOH], in data set [3], the “non-toxic replacement of water in the body” value was 10-30%.
For the compound `[2H]C([2H])([2H])[C@H](N)C(=O)O` [L-alanine-3,3,3-d3], the “loss of deuterium in vivo” value in data set [4] was “lose deuterium in vivo very quickly”. In the data set with 4T1 breast carcinoma, the “accumulation in tumor tissue (2H tomograms)” value is listed as “do not accumulate in tumor tissue” and the “accumulation selectivity in various organs (2H tomograms)” value is “do not show accumulation selectivity in various organs”.
As to `[2H]C([2H])([2H])C([C@H](N)C(=O)O)C([2H])([2H])[2H]` [valine-d6, Valine-4,4,4,4′, 4′, 4′-D6], in [5] (1 hour after the injection), the “accumulation in tumor tissue compared to kidneys, heart, brain, skeletal muscles and adipose tissue” value is “increased accumulation”. The “[valine-d6], 30 min.” value in [5] (Brain) turned out to be 1.6 µmol/g; in data set [5] (Fat tissue), 4.0 µmol/g; in [5] (Heart), 7.5 µmol/g; in [5] (Kidneys) it was 9.3 µmol/g; in [5] (Liver), 17.9 µmol/g; in data set [5] (Lungs) it was 10.6 µmol/g. The “[valine-d6], 30 min.” value in data set [5] (Sceletal muscles) worked out at 7.4 µmol/g; in data set [5] (Spleen) it was 14.7 µmol/g; in [5] (Tumor), 9.2 µmol/g. Further, the “[valine-d6], 1 hour” value in data set [5] (Brain) is 2.6 µmol/g; in [5] (Fat tissue) it was 1.7 µmol/g; in data set [5] (Heart), 8.0 µmol/g; in data set [5] (Kidneys), 7.5 µmol/g; in [5] (Liver) it was 11.5 µmol/g; in data set [5] (Lungs), 8.8 µmol/g. Moreover, the “[valine-d6], 1 hour” value was 7.7 µmol/g in data set [5] (Sceletal muscles), 14.1 µmol/g in [5] (Spleen) and 9.8 µmol/g in data set [5] (Tumor). In addition, the “Tumor:tissue ratio, 30 min.” value in [5] (Tumor:Brain) is 5.8; in data set [5] (Tumor:Fat tissue), 2.3; in data set [5] (Tumor:Heart), 1.2; in [5] (Tumor:Kidneys), 0.99; in data set [5] (Tumor:Liver), 0.51; in data set [5] (Tumor:Lungs), 0.87. The “Tumor:tissue ratio, 30 min.” value in data set [5] (Tumor:Sceletal muscles) stood at 1.2; in [5] (Tumor:Spleen), 0.63. The “Tumor:tissue ratio, 1 hour” value in data set [5] (Tumor:Brain) is 3.8; in data set [5] (Tumor:Fat tissue) it was 5.8; in data set [5] (Tumor:Heart), 1.2; in data set [5] (Tumor:Kidneys), 1.3; in data set [5] (Tumor:Liver), 0.85; in data set [5] (Tumor:Lungs) it was 1.1. The entries for the “Tumor:tissue ratio, 1 hour” value in data set [5] (Tumor:Sceletal muscles) and in data set [5] (Tumor:Spleen) were 1.3 and 0.70, respectively. The “excess over the physiological concentration of free valine in animal tissues” value in data set [5] (physiological free valine about 0.5 μmol/g) is “more than 10 fold”.
`[2H]C([2H])(N)C(=O)O` [glycine-2,2-d2]: the “loss of deuterium in vivo” value in data set [4] is “lose deuterium in vivo very quickly”.
In the case of `CC(C)C(N)[14C](=O)O` (racemic) [DL-1-^14C-valine], in data set [6], the “elimination of isotopic label in the form of CO2” value is recorded as 28% and the “organ of main accumulation” value is on record as “accumulate mainly in the pancreas”. For the same compound, the “increase of absolute concentration of valine in liver and kidneys over physiological” value in data set [7] is “no more than 0.3 nmol/g”.
Regarding `CC(C)[C@H](N)[11C](=O)O` [1-^11C-valine], in data set [6], the “organ of main accumulation” value is listed as “accumulate mainly in the pancreas”.
`[2H]O[2H]` [D2O]: in data set [8], the “selective accumulation in various organs and tissues” value is “do not show selective accumulation”.
In the case of `[2H]c1c([2H])c([2H])c(C([2H])([2H])[C@H](N)C(=O)O)c([2H])c1[2H]` [L-phenylalanine-β,β,2,3,4,5,6-d7], the solubility entry in data set [9] was “low solubility”. In the data set on 4T1 breast carcinoma, the “accumulation in tumor tissue (2H tomograms)” value is reported as “do not accumulate in tumor tissue” and the “accumulation selectivity in various organs (2H tomograms)” value is given as “do not show accumulation selectivity in various organs”.
